Measurements reported in the supplement of paper PMC10307832.

Legend:
Assay in all cases: relative viability (nuclei count vs DMSO), 5 days (fraction); higher = more cells survive
[1] = system: HCC-366
Procedure, shortened: (§1)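 Lung cancer cell lines, seeded in 1536-well plates, were treated the following day by pin tool with a single drug or with five library-drug doses (not always all listed) in √10 steps on top of a fixed anchor-drug dose. Cells were fixed and nuclei stained in one step after 5 days, and nuclei were counted. Relative viability is the nuclei count for treated wells divided by that for vehicle wells, reported as medians of duplicate plates.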

[2] = system: NCI-H1792
Procedure, shortened: as §1

[3] = system: NCI-H2087
Procedure, shortened: as §1

[4] = system: NCI-H647
Procedure, shortened: as §1

[5] = system: SK-MES-1
Procedure, shortened: as §1

[6] = system: EKVX
Procedure, shortened: as §1

[7] = system: SK-LU-1
Procedure, shortened: as §1

[8] = system: LOU-NH91
Procedure, shortened: as §1

[9] = system: HCC-827
Procedure, shortened: as §1

[10] = system: BEN
Procedure, shortened: as §1

[11] = system: NCI-H2009
Procedure, shortened: as §1

[12] = system: NCI-H2170
Procedure, shortened: as §1

[13] = system: LC-2-ad
Procedure, shortened: as §1

[14] = system: NCI-H1395
Procedure, shortened: as §1

[15] = system: NCI-H661
Procedure, shortened: as §1

[16] = system: NCI-H1355
Procedure, shortened: as §1

[17] = system: NCI-H1734
Procedure, shortened: as §1

[18] = system: NCI-H1437
Procedure, shortened: as §1

[19] = system: NCI-H2405
Procedure, shortened: as §1

[20] = system: NCI-H2228
Procedure, shortened: as §1

[21] = system: NCI-H596
Procedure, shortened: as §1

[22] = system: HARA
Procedure, shortened: as §1

Work on O=C(O)c1ccc(-c2c[nH]c3ncc(-c4ccccc4)cc23)cc1C1CCCC1 + CS(=O)(=O)N1CCN(Cc2cc3nc(-c4cccc5[nH]ncc45)nc(N4CCOCC4)c3s2)CC1 [Pictilisib] (partner 1 µM) yielded a relative viability ([1]; first compound 0.04 µM) of 0.136, a relative viability ([1]; first compound 0.1265 µM) of 0.192 and a relative viability ([1]; first compound 0.4 µM) of 0.138. The relative viability ([1]; first compound 1.265 µM) was 0.153, the relative viability ([2]; first compound 0.04 µM) was 0.287 and the relative viability ([2]; first compound 0.1265 µM) was 0.311. It also gave a relative viability ([2]; first compound 0.4 µM) of 0.329, a relative viability ([2]; first compound 1.265 µM) of 0.27 and a relative viability ([3]; first compound 0.04 µM) of 0.963. For the same compound, the relative viability ([3]; first compound 0.1265 µM) was 1.09, the relative viability ([3]; first compound 0.4 µM) was 0.758 and the relative viability ([3]; first compound 1.265 µM) was 0.712. For the same compound, the relative viability ([4]; first compound 0.04 µM) was 0.418, the relative viability ([4]; first compound 0.1265 µM) was 0.38 and the relative viability ([4]; first compound 0.4 µM) was 0.478. The relative viability ([4]; first compound 1.265 µM) was 0.344, the relative viability ([5]; first compound 0.04 µM) was 0.326 and the relative viability ([5]; first compound 0.1265 µM) was 0.399. It also gave a relative viability ([5]; first compound 0.4 µM) of 0.283, a relative viability ([5]; first compound 1.265 µM) of 0.298 and a relative viability ([6]; first compound 0.04 µM) of 0.462. It also gave a relative viability ([6]; first compound 0.1265 µM) of 0.524, a relative viability ([6]; first compound 0.4 µM) of 0.468 and a relative viability ([6]; first compound 1.265 µM) of 0.374. It also gave a relative viability ([7]; first compound 0.04 µM) of 0.559, a relative viability ([7]; first compound 0.1265 µM) of 0.604 and a relative viability ([7]; first compound 0.4 µM) of 0.538. The relative viability ([7]; first compound 1.265 µM) was 0.418, the relative viability ([8]; first compound 0.04 µM) was 0.513 and the relative viability ([8]; first compound 0.1265 µM) was 0.517. For the same compound, the relative viability ([8]; first compound 0.4 µM) was 0.512, the relative viability ([8]; first compound 1.265 µM) was 0.52 and the relative viability ([9]; first compound 0.04 µM) was 1.12. For the same compound, the relative viability ([9]; first compound 0.1265 µM) was 1.12, the relative viability ([9]; first compound 0.4 µM) was 0.965 and the relative viability ([9]; first compound 1.265 µM) was 0.859. For the same compound, the relative viability ([10]; first compound 0.04 µM) was 0.546, the relative viability ([10]; first compound 0.1265 µM) was 0.609 and the relative viability ([10]; first compound 0.4 µM) was 0.584. The relative viability ([10]; first compound 1.265 µM) was 0.555, the relative viability ([11]; first compound 0.04 µM) was 0.793 and the relative viability ([11]; first compound 0.1265 µM) was 0.836. The relative viability ([11]; first compound 0.4 µM) was 0.788, the relative viability ([11]; first compound 1.265 µM) was 0.586 and the relative viability ([12]; first compound 0.04 µM) was 0.386. The relative viability ([12]; first compound 0.1265 µM) was 0.326, the relative viability ([12]; first compound 0.4 µM) was 0.294 and the relative viability ([12]; first compound 1.265 µM) was 0.211. For the same compound, the relative viability ([13]; first compound 0.04 µM) was 0.48, the relative viability ([13]; first compound 0.1265 µM) was 0.46 and the relative viability ([13]; first compound 0.4 µM) was 0.462. It also gave a relative viability ([13]; first compound 1.265 µM) of 0.351, a relative viability ([14]; first compound 0.04 µM) of 0.769 and a relative viability ([14]; first compound 0.1265 µM) of 0.691. For the same compound, the relative viability ([14]; first compound 0.4 µM) was 0.625, the relative viability ([14]; first compound 1.265 µM) was 0.555 and the relative viability ([15]; first compound 0.1265 µM) was 0.464. It also gave a relative viability ([15]; first compound 0.4 µM) of 0.508, a relative viability ([15]; first compound 1.265 µM) of 0.424 and a relative viability ([16]; first compound 0.04 µM) of 0.481. The relative viability ([16]; first compound 0.1265 µM) was 0.514, the relative viability ([16]; first compound 0.4 µM) was 0.4 and the relative viability ([16]; first compound 1.265 µM) was 0.35. For the same compound, the relative viability ([17]; first compound 0.04 µM) was 0.429, the relative viability ([17]; first compound 0.1265 µM) was 0.556 and the relative viability ([17]; first compound 0.4 µM) was 0.445. The relative viability ([17]; first compound 1.265 µM) was 0.419, the relative viability ([18]; first compound 0.04 µM) was 0.489 and the relative viability ([18]; first compound 0.1265 µM) was 0.446. For the same compound, the relative viability ([18]; first compound 0.4 µM) was 0.371, the relative viability ([18]; first compound 1.265 µM) was 0.263 and the relative viability ([19]; first compound 0.04 µM) was 0.458. For the same compound, the relative viability ([19]; first compound 0.1265 µM) was 0.543, the relative viability ([19]; first compound 0.4 µM) was 0.383 and the relative viability ([19]; first compound 1.265 µM) was 0.408. For the same compound, the relative viability ([20]; first compound 0.04 µM) was 0.58, the relative viability ([20]; first compound 0.1265 µM) was 0.549 and the relative viability ([20]; first compound 0.4 µM) was 0.26. For the same compound, the relative viability ([20]; first compound 1.265 µM) was 0.274, the relative viability ([21]; first compound 0.04 µM) was 0.353 and the relative viability ([21]; first compound 0.1265 µM) was 0.399. For the same compound, the relative viability ([21]; first compound 0.4 µM) was 0.353, the relative viability ([21]; first compound 1.265 µM) was 0.41 and the relative viability ([22]; first compound 0.04 µM) was 0.31. The relative viability ([22]; first compound 0.1265 µM) was 0.604, the relative viability ([22]; first compound 0.4 µM) was 0.449 and the relative viability ([22]; first compound 1.265 µM) was 0.545.
